≈ marks a conversion by molar mass, not a printed value. Read-outs that look alike come from different tables or passages of the source.
Assays:
[1] = test system: feline leukemia virus (FeLV); test: Feline leukemia virus (FeLV) antiviral drug test; assay type: cell-based; details: for EC50: Feline leukemia virus; for TI: in vitro therapeutic index, ratio of IC50/EC50, FeLV; for activity against the feline leukemia virus: result in words, Tables 1 through 3
Excerpt: Feline leukemia viruses belong to the retrovirus family. Diseases caused by members of this family in cats have clinical manifestations similar to symptoms observed in humans with diseases caused by the human immunodeficiency viruses. Feline leukemia virus was selected as a representative member of the retrovirus family to use as a model for drug testing to search for compounds effective in preventing viral infection and replication. Cell lines were provided by Hansen Veterinary Immunology, and reagents and protocols for the ELISA assay can be purchased from the same company.
(§1) Antiviral activity on crude extracts is expressed by percent antiviral activity or by using the minus and plus values stated above. The EC50 of an antiviral drug represents the concentration of drug that results in 50% reduction of the viral cytopathic effect and the IC50 represents the concentration resulting in 50% growth inhibition. These values are determined from graphs constructed from the raw data. The in vitro therapeutic index (TI) is the ratio of IC50 /EC50.

[2] = test system: human immunodeficiency virus (HIV); test: HIV (AIDS virus) antiviral assay; assay type: cell-based
Procedure: as §1

CRFK cells = test: Toxicity for CRFK cells (neutral red or MTT assay), FeLV test; assay type: cell-based
Procedure: A. Determination of Toxicity of Samples for CRFK Cells with Neutral Red Assay or MTT Assay
This assay is a modification of a procedure provided in detail by Dr. Ellen Borenfreund from Rockefeller University. Borenfreund, E., and J. A. Puerner (1984) "A Simple Quantitative Procedure Using Monolayer Cultures for Cytotoxicity Assays (HTD/NR-90)," J. Tissue Culture Methods 9:7-9.
b. MTT is diluted in D-MEM maintenance medium at a concentration of 1 mg per ml. For the toxicity test 75 microliters are added to each well of a 96-well plate without removing any medium. The plates are incubated for 6 hours at 37° C. At the end of the incubation period the medium is removed. If the cell layer is adherent, plates are not centrifuged to bring the cells down. CRFK is an adherent cell line, and for the MTT assay, no centrifugation is required. To each well 200 microliters of isopropyl alcohol are added. The formazan crystals are dissolved. After mixing, the plates are read with a plate reader at a wavelength of 570 nm. Toxicity percentages are determined the same as for neutral red.
as §1

murine splenocytes = test: Two-way mixed lymphocyte reaction (MLR); assay type: cell-based, mouse (BALB/c and C57BL/6J)
Procedure: The pure compound was tested in the two-way mixed lymphocyte reaction (MLR) and a lymphocyte viability assay (LCV) at 500, 50, 5, and 0.5 μg/ml, using murine splenocytes. Cellular proliferation was measured using incorporation of ^3 H-thymidine. Responses were reported as a percent of the positive MLR or LCV control.
1. Murine splenocyte suspensions were prepared separately from BALB/c and C57BL/6J mice. Spleens were aseptically removed and homogenized in RPMI 1640 tissue culture medium (TCM), supplemented with 10% fetal calf serum, 2% 1-glutamine, 15 mM HEPES, 1% antibiotic-antimycotic solution, and 25 μg/ml gentamycin (GIBCO). The cell concentrations were adjusted to 2.5×10^6 cells/ml. Aliquots of each cell population were removed to separate tubes, and the remaining two cell suspensions combined to one tube.
2. Serial, log10 dilutions of the pure compound were made in absolute ethanol, and 10 μl of each dilution were added to wells of microtiter test plates, and allowed to dry.
3. A volume of 0.2 ml of the combined splenocyte suspensions was added to triplicate test wells. Positive control wells received combined splenocyte suspensions in the absence of the test compounds. Negative control wells consisted of separate (not mixed) splenocyte suspensions cultured in the absence of the test compounds.
4. Plates were incubated in 5% CO2 at 37° C. for 86 hours.
5. A volume of 0.05 ml of ^3 H-thymidine (20 (μCi/ml) was added to each well, and the plates incubated in 5% CO2 at 37° C. for an additional 5 hours.
6. The contents of each well of the microtiter plates were harvested onto glass fiber filter strips, and the resulting filter discs placed in scintillation vials to which 2.0 ml of scintillation fluid was added.
7. The amount of incorporated ^3 H-thymidine was determined by counting the vials in a liquid scintillation counter.
8. Triplicate counts were averaged, and the data reported as a percentage of the positive control.

[3] = 50% growth inhibition (toxicity) in HIV assay; assay type: cell-based
Procedure: as §1

P388 = test: Standard P388 assay (tumor cell growth inhibition); assay type: cell-based
Excerpt: HB100 has also been tested to determine its activity in inhibiting the growth of tumor cells.

[4] = test system: mouse coronavirus A59 (MHV-A59); test: Antiviral assay for mouse coronavirus A59 (CPE); assay type: cell-based, mouse hepatitis virus strain MHV-A59; parameters: key to activity: +++: complete inhibition of CPE and cell fusion; ++: partial inhibition; +: partial inhibition; +/-: partial inhibition; -: no protection
Procedure: (§2) The antiviral assay for A59 is a cytopathic test (CPE). Susceptible cells are infected with the virus at a dose that infects most of the cells and produces CPE. The characteristic CPE observed is the formation of syncytia. Compounds and extracts which inhibit the CPE are referred to as active samples.
(§3) 1. NCTC clone 1469 is a derivative of mouse liver.
1. Mouse hepatitis virus strain MHV-A59 classified as a coronavirus.
1. Dilute drug or extract for test in the appropriate solvent.
2. Add 20 μl per tube or well.
3. Allow the solvent to evaporate under the laminar flow hood.
4. Dilute the MHV-A59 in Dulbecco's phosphate buffered saline with Ca^++ and Mg^++ to the appropriate predetermined dilution for the lot number currently in use.
5. Remove medium from wells of 24 well plate containing NCTC 1469 cells seeded 24 hours earlier.
6. Medium can be removed by pouring the fluid from the plate and blotting it on a sterile towel.
7. Add 200 lambda of diluted virus to each test well. Add PBS to control wells.
8. Incubate cells and virus for 1 hour at 37° C.
9. Pour off supernatant at end of incubation period.
10. To each glass tube add 10 lambda of dimethyl sulfoxide (DMSO). The purpose for the DMSO is to solubilize the drug. If it is known that the drug under test is water soluble, then the DMSO is not necessary. However, in cases of testing unknown compounds, DMSO may be added, but DMSO causes some toxicity. Since differences have been noted with and without DMSO, the preferred technique is to test the sample under both conditions.
11. Add 1 ml of maintenance medium to each glass tube.
12. Pour the contents of the glass tube into the corresponding well of the tissue culture plate.
13. Incubate infected cells at 37° C. and read the following day.
14. At 12 hours, areas of cell fusion are quite apparent and can be detected both visually and microscopically.
15. […]
To assist in visual interpretation of the data, the antiviral activity is scored from a minus to a three plus based on the percentage of inhibition of viral cytopathic effects. […]

[5] = Cytotoxicity scoring in coronavirus A59 assay; assay type: cell-based; details: mouse, nctc 1469 cells, read-out: toxicity
Excerpt: as §2, §3
100%=complete cell destruction
75%=partial cell destruction
50%=partial cell destruction
25%=partial cell destruction

[6] = FeLV assay, 50% growth inhibition, molar value, read-out: IC50 (in parentheses)

SMILES	EC50 [1] [µg/mL]	TI [1]	activity against the feline leukemia virus [1]	TI ([2]; in vitro therapeutic index, ratio of IC50/EC50, HIV)	activity against the AIDS virus ([2]; result in words)	IC50 (CRFK cells) [µg/mL]	IC50 (CRFK cells; [6]) [µM]	activity at 0.05 µg/mL (murine splenocytes; Mus musculus, Splenocyte, 0.05 μg/ml, percent of positive control) [%]	activity at 5 µg/mL (murine splenocytes; Mus musculus, Splenocyte, 5.00 μg/ml, percent of positive control) [%]	activity at 50 µg/mL (murine splenocytes; Mus musculus, Splenocyte, 50.00 μg/ml, percent of positive control) [%]	activity at 500 µg/mL (murine splenocytes; Mus musculus, Splenocyte, 500.00 μg/ml, percent of positive control) [%]	immunosuppressive activity (MLR <100% and LCV >70%) (murine splenocytes; at 50 μg/ml and 5 μg/ml, result in words)	IC50 [3] [µg/mL]	IC50 (P388; Mus musculus, standard P388 assay) [µg/mL]	inhibition of growth of tumor cells (P388; result in words)	activity ([4]; 2 μg)	activity ([4]; 20 μg)	inhibition of viral growth ([4]; 20 μg, result in words)	cytotoxicity ([5]; 2 μg) [%]	cytotoxicity ([5]; 20 μg) [%]
CC(C)C1(CCC(C)(O)C2C(O)CC3C4CCC5CC(OS(=O)(=O)O)C(OS(=O)(=O)O)CC5(C)C4CCC32C)CC1C (stereo not drawn) [HB99]	20 (≈ 31.4 µM)	17.5	showed activity against the feline leukemia virus	70	showed activity against the AIDS virus	350	514	126	98	19	0	exhibited immunosuppressive activity	350 (≈ 550 µM)							
CC(CCC1(C(C)C)CC1C)C1C(O)CC2C3CCC4CC(OS(=O)(=O)O)C(OS(=O)(=O)O)CC4(C)C3CCC21CO (stereo not drawn) [HB100]	26 (≈ 40.8 µM)	7.1	showed activity against the feline leukemia virus			185	272							0.1 (≈ 0.157 µM)	inhibit the growth of tumor cells					
CCCC12OC3CC4C5CCC6CC(OS(=O)(=O)O)C(OS(=O)(=O)O)CC6(C)C5CCC4(C)C3C(C)(O1)C(CC1(C(C)C)CC1C)O2 (stereo not drawn) [HB124]	6.25 (≈ 8.87 µM)	> 8	showed activity against the feline leukemia virus			> 50	> 68									-	++	significantly inhibit viral growth	0	25
